Data as given in patent US8835403B2, “Algin oligosaccharides and the derivatives thereof as well as the manufacture and the use of the same” (priority 2004, dated 2014).

Legend:
Na+, K+-ATPase = Na+, K+-ATPase activity in cerebral cortex and hippocampus of Aβ1-40-induced AD mice; format: in vivo
Protocol: Following the behavioral test, rats are decapitated. Cerebral cortex and hippocampus are dissected on ice immediately, and stored at −80° C. after quick freezing in liquid nitrogen for 1 hour. MDA, SOD, GSH-PX, Na^+, K^+-ATPase, AchE and CHAT activities in the brain regions are determined using the respective kits. The homogenates of cerebral cortex and hippocampus are prepared with saline with a final concentration of 10% and 5%. The supernatant were obtained after centrifuging at 3600 rpm to test MDA, CuZn-SOD, GSH-PX, Na^+K^+-ATPase, AchE, and CHAT activities. The activity of ChAT is determined with isotope-labeled method. The other indexes and amount of total proteins are tested with the respective kits supplied by Nanjing Jiancheng Bioengineering Institute.

[1] = test system: apoptotic cascade induced by Aβ; test: Apoptotic cascade markers induced by Aβ; format: cell-based

Structure (SMILES): O=C(O)C1OC(OC2C(C(=O)O)OC(OC3C(C(=O)O)OC(OC4C(C(=O)O)OC(OC5C(C(=O)O)OC(OC6C(C(=O)O)OC(O)C(O)C6O)C(O)C5O)C(O)C4O)C(O)C3O)C(O)C2O)C(O)C(O)C1O (stereo not shown) [6-mer, mannuronic hexasaccharide]
- ATPase activity (μmol Pi/mg prot./hour) cerebral cortex (Na+, K+-ATPase; 15 mg/kg): 1.08 ± 0.06 μmol Pi/mg prot./hour
- ATPase activity (μmol Pi/mg prot./hour) cerebral cortex (Na+, K+-ATPase; 30 mg/kg): 1.09 ± 0.08 μmol Pi/mg prot./hour
- ATPase activity (μmol Pi/mg prot./hour) cerebral cortex (Na+, K+-ATPase; 60 mg/kg): 1.08 ± 0.05 μmol Pi/mg prot./hour
- ATPase activity (μmol Pi/mg prot./hour) hippocampus (Na+, K+-ATPase; 15 mg/kg): 2.10 ± 0.29 μmol Pi/mg prot./hour
- ATPase activity (μmol Pi/mg prot./hour) hippocampus (Na+, K+-ATPase; 30 mg/kg): 2.07 ± 0.23 μmol Pi/mg prot./hour
- ATPase activity (μmol Pi/mg prot./hour) hippocampus (Na+, K+-ATPase; 60 mg/kg): 2.52 ± 0.25 μmol Pi/mg prot./hour
- expression of Bcl-2 [1]: up-regulating
- expression of Caspase-3 [1]: down-regulating
- expression of P53 [1]: down-regulating
- overload of intracellular calcium ion and ROS accumulation [1]: reversing
